What was measured:
Format in all cases: in vivo
[1] = test system: Abutilon theophrasti; test: Herbicidal action post-emergence, greenhouse pot test
How it was run: (§1)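 Plants grown from seed in sandy loam are treated at the one-leaf stage with aqueous suspensions or emulsions, 600 L/ha water rate, 0.5% additive, at 80 g/ha or lower. They then stand about 3 weeks in the greenhouse before visual scoring against untreated controls.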

[2] = test system: Alopecurus myosuroides; test: as above; conditions: application rate 80 g/ha, scored visually after about 3 weeks vs untreated controls
How it was run: as §1

[3] = test system: Amaranthus retroflexus; test: as above
How it was run: as §1

[4] = test system: Avena fatua; test: as above; conditions: application rate 80 g/ha
How it was run: as §1

[5] = test system: Echinochloa crus-galli; test: as above
How it was run: as §1

[6] = test system: Lolium rigidum; test: as above; conditions: application rate 80 g/ha
How it was run: as §1

[7] = test system: Matricaria inodora; test: as above
How it was run: as §1

[8] = test system: Pharbitis purpurea; test: as above
How it was run: as §1

[9] = test system: Polygonum convolvulus; test: as above; conditions: application rate 80 g/ha
How it was run: as §1

[10] = test system: Stellaria media; test: as above
How it was run: as §1

[11] = test system: Veronica persica; test: as above
How it was run: as §1

[12] = test system: Viola tricolor; test: as above
How it was run: as §1

[13] = test system: Oryza sativa; test: Crop compatibility post-emergence, greenhouse pot test; conditions: application rate 20 g/ha
How it was run: (§2)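 Visual % damage rating versus untreated plants (100% = plants dead, 0% = as control), taken about 3 weeks post-treatment. Spray applied to foliage at one-leaf stage (2–3 weeks from sowing) as WP/EC formulation in water plus 0.5% additive, 600 L/ha; greenhouse pots, sandy loam.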

[14] = test system: Triticum aestivum; test: as above
How it was run: as §2

[15] = test system: Zea mays; test: as above; conditions: application rate 20 g/ha
How it was run: as §2

[16] = test system: Abutilon theophrasti; test: Herbicidal action pre-emergence, greenhouse pot test; conditions: application rate 320 g/ha
How it was run: (§3)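 Efficacy (%) was estimated visually after about 3 weeks in the greenhouse by comparison with untreated pots. Before that, seeded pots received a surface spray of formulated compound at 320 g/ha or less.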

[17] = test system: Alopecurus myosuroides; test: as above; conditions: application rate 320 g/ha
How it was run: as §3

[18] = test system: Amaranthus retroflexus; test: as above
How it was run: as §3

[19] = test system: Avena fatua; test: as above; conditions: application rate 320 g/ha
How it was run: as §3

[20] = test system: Cyperus esculentus; test: as above; conditions: application rate 320 g/ha
How it was run: as §3

[21] = test system: Echinochloa crus-galli; test: as above; conditions: application rate 320 g/ha
How it was run: as §3

[22] = test system: Hordeum murinum; test: as above; conditions: application rate 320 g/ha
How it was run: as §3

[23] = test system: Lolium rigidum; test: as above; conditions: application rate 320 g/ha
How it was run: as §3

[24] = test system: Pharbitis purpurea; test: as above; conditions: application rate 320 g/ha
How it was run: as §3

[25] = test system: Polygonum convolvulus; test: as above; conditions: application rate 320 g/ha
How it was run: as §3

[26] = test system: Setaria viridis; test: as above; conditions: application rate 320 g/ha
How it was run: as §3

[27] = test system: Stellaria media; test: as above; conditions: application rate 320 g/ha
How it was run: as §3

[28] = test system: Veronica persica; test: as above; conditions: application rate 320 g/ha
How it was run: as §3

[29] = test system: Viola tricolor; test: as above; conditions: application rate 320 g/ha
How it was run: as §3

[30] = test system: Matricaria inodora; test: as above; conditions: application rate 320 g/ha
Excerpt: Seeds of mono- and dicotyledonous weeds and crop plants were laid out in plastic or organic plant pots and covered with soil. The compounds of the invention formulated in the form of wettable powders (WP) or as emulsion concentrates (EC) were then applied to the surface of the covering soil as an aqueous suspension or emulsion with addition of 0.5% additive at a water application rate equivalent to 600 L/ha. After the treatment, the pots were placed in a greenhouse and kept under good growth conditions for the test plants. After about 3 weeks, the efficacy of the preparations was scored visually as a percentage by comparison with untreated controls. For example, 100% efficacy=plants have died. 0% efficacy=like control plants. Tables B1 to B17 below show the efficacies of selected compounds of the general formula (I) […] aforementioned trial method.

[31] = test system: Setaria viridis; test: Herbicidal action post-emergence, greenhouse pot test; conditions: application rate 20 g/ha
How it was run: as §1

With `CNC(=O)COC(=O)C(C)Sc1cc(-n2c(=O)cc(C(F)(F)F)n(C)c2=O)c(F)cc1Cl` (stereo not drawn) [I.1-182] the “Abutilon theophrasti (Efficacy in %)” value ([1]; application rate 80 g/ha) was 100%, the “Alopecurus myosuroides (Efficacy in %)” value [2] was 80% and the “Amaranthus retroflexus (Efficacy in %)” value ([3]; application rate 80 g/ha) was 100%. For the same molecule, the “Avena fatua (Efficacy in %)” value [4] was 90%, the “Echinochloa crus-galli (Efficacy in %)” value ([5]; application rate 80 g/ha) was 100% and the “Lolium rigidum (Efficacy in %)” value [6] was 100%. The “Matricaria inodora (Efficacy in %)” value ([7]; application rate 80 g/ha) was 100%, the “Pharbitis purpurea (Efficacy in %)” value ([8]; application rate 80 g/ha) was 100% and the “Polygonum convolvulus (Efficacy in %)” value [9] was 100%. For the same molecule, the “Stellaria media (Efficacy in %)” value ([10]; application rate 80 g/ha) was 100%, the “Veronica persica (Efficacy in %)” value ([11]; application rate 80 g/ha) was 100% and the “Viola tricolor (Efficacy in %)” value ([12]; application rate 20 g/ha) was 100%. The “Oryza sativa (Efficacy in %)” value [13] was 20%, the “Triticum aestivum (Efficacy in %)” value ([14]; application rate 5 g/ha) was 10% and the “Zea mays (Efficacy in %)” value [15] was 20%. The “Abutilon theophrasti (Efficacy in %)” value [16] was 100%, the “Alopecurus myosuroides (Efficacy in %)” value [17] was 80% and the “Amaranthus retroflexus (Efficacy in %)” value ([18]; application rate 80 g/ha) was 100%. The “Avena fatua (Efficacy in %)” value [19] was 90%, the “Cyperus esculentus (Efficacy in %)” value [20] was 80% and the “Echinochloa crus-galli (Efficacy in %)” value [21] was 100%. The “Hordeum murinum (Efficacy in %)” value [22] was 90%, the “Lolium rigidum (Efficacy in %)” value [23] was 100% and the “Pharbitis purpurea (Efficacy in %)” value [24] was 100%. The “Polygonum convolvulus (Efficacy in %)” value [25] was 100%, the “Setaria viridis (Efficacy in %)” value [26] was 100% and the “Stellaria media (Efficacy in %)” value [27] was 100%. For the same molecule, the “Veronica persica (Efficacy in %)” value [28] was 100%, the “Viola tricolor (Efficacy in %)” value [29] was 100% and the “Matricaria inodora (Efficacy in %)” value [30] was 100%.
`CC(Sc1cc(-n2c(=O)cc(C(F)(F)F)n(C)c2=O)c(F)cc1Cl)C(=O)OC1CCNC1=O` (stereo not drawn) [I.1-251] was tested, and the “Abutilon theophrasti (Efficacy in %)” value ([1]; application rate 80 g/ha) was 100%, the “Alopecurus myosuroides (Efficacy in %)” value [2] was 100% and the “Amaranthus retroflexus (Efficacy in %)” value ([3]; application rate 80 g/ha) was 100%. The “Avena fatua (Efficacy in %)” value [4] was 80%, the “Echinochloa crus-galli (Efficacy in %)” value ([5]; application rate 80 g/ha) was 100% and the “Lolium rigidum (Efficacy in %)” value [6] was 100%. The “Matricaria inodora (Efficacy in %)” value ([7]; application rate 80 g/ha) was 100%, the “Pharbitis purpurea (Efficacy in %)” value ([8]; application rate 80 g/ha) was 100% and the “Polygonum convolvulus (Efficacy in %)” value [9] was 100%. The “Setaria viridis (Efficacy in %)” value [31] was 100%, the “Stellaria media (Efficacy in %)” value ([10]; application rate 80 g/ha) was 100% and the “Veronica persica (Efficacy in %)” value ([11]; application rate 80 g/ha) was 100%. For the same molecule, the “Viola tricolor (Efficacy in %)” value ([12]; application rate 80 g/ha) was 100%, the “Oryza sativa (Efficacy in %)” value [13] was 20% and the “Triticum aestivum (Efficacy in %)” value ([14]; application rate 20 g/ha) was 10%. The “Zea mays (Efficacy in %)” value [15] was 10%, the “Abutilon theophrasti (Efficacy in %)” value [16] was 100% and the “Alopecurus myosuroides (Efficacy in %)” value [17] was 100%. For the same molecule, the “Amaranthus retroflexus (Efficacy in %)” value ([18]; application rate 80 g/ha) was 100%, the “Avena fatua (Efficacy in %)” value [19] was 90% and the “Cyperus esculentus (Efficacy in %)” value [20] was 80%. For the same molecule, the “Echinochloa crus-galli (Efficacy in %)” value [21] was 100%, the “Hordeum murinum (Efficacy in %)” value [22] was 90% and the “Pharbitis purpurea (Efficacy in %)” value [24] was 100%. For the same molecule, the “Polygonum convolvulus (Efficacy in %)” value [25] was 100%, the “Setaria viridis (Efficacy in %)” value [26] was 100% and the “Veronica persica (Efficacy in %)” value [28] was 100%. The “Viola tricolor (Efficacy in %)” value [29] was 100% and the “Matricaria inodora (Efficacy in %)” value [30] was 100%.
With `COC(=O)CC(CC(=O)OC)OC(=O)CSc1cc(-n2c(=O)cc(C(F)(F)F)n(C)c2=O)c(F)cc1Cl` [I.8-127] the “Abutilon theophrasti (Efficacy in %)” value ([1]; application rate 20 g/ha) was 100%, the “Alopecurus myosuroides (Efficacy in %)” value [2] was 80% and the “Amaranthus retroflexus (Efficacy in %)” value ([3]; application rate 20 g/ha) was 100%. The “Avena fatua (Efficacy in %)” value [4] was 80%, the “Echinochloa crus-galli (Efficacy in %)” value ([5]; application rate 20 g/ha) was 100% and the “Lolium rigidum (Efficacy in %)” value [6] was 90%. For the same molecule, the “Matricaria inodora (Efficacy in %)” value ([7]; application rate 20 g/ha) was 100%, the “Pharbitis purpurea (Efficacy in %)” value ([8]; application rate 20 g/ha) was 100% and the “Polygonum convolvulus (Efficacy in %)” value [9] was 100%. The “Setaria viridis (Efficacy in %)” value [31] was 100%, the “Stellaria media (Efficacy in %)” value ([10]; application rate 20 g/ha) was 100% and the “Veronica persica (Efficacy in %)” value ([11]; application rate 20 g/ha) was 100%. For the same molecule, the “Viola tricolor (Efficacy in %)” value ([12]; application rate 80 g/ha) was 100%, the “Abutilon theophrasti (Efficacy in %)” value [16] was 100% and the “Amaranthus retroflexus (Efficacy in %)” value ([18]; application rate 20 g/ha) was 100%. The “Cyperus esculentus (Efficacy in %)” value [20] was 90%, the “Echinochloa crus-galli (Efficacy in %)” value [21] was 100% and the “Hordeum murinum (Efficacy in %)” value [22] was 90%. The “Lolium rigidum (Efficacy in %)” value [23] was 90%, the “Pharbitis purpurea (Efficacy in %)” value [24] was 100% and the “Polygonum convolvulus (Efficacy in %)” value [25] was 100%. The “Setaria viridis (Efficacy in %)” value [26] was 100%, the “Stellaria media (Efficacy in %)” value [27] was 100% and the “Veronica persica (Efficacy in %)” value [28] was 100%. For the same molecule, the “Matricaria inodora (Efficacy in %)” value [30] was 100%.

— patent US11274083B2, “Substituted thiophenyl uracils, salts thereof and the use thereof as herbicidal agents” (Syngenta Crop Protection AG, priority 2017, dated 2022)
